Results: ChEMBL document CHEMBL1131286, “Design and synthesis of m1-selective muscarinic agonists: (R)-(-)-(Z)-1-Azabicyclo[2.2.1]heptan-3-one, O-(3-(3'-methoxyphenyl)-2-propynyl)oxime maleate (CI-1017), a functionally m1-selective muscarinic agonist” (J Med Chem, 1998)
Activity calls are given as the source filed them. No cut-off for these calls is given here.

Key:
[1] = biological target: T1, Muscarinic acetylcholine receptor M1 (Homo sapiens) (UniProt P11229); assay: Stimulations of inositol phosphate(PI) accumulation in transfected CHO cells in Muscarinic acetylcholine receptor M1 values are the maximal response obtained from the compound tested at 100 uM normalized to the effect of carbachol.; type: functional, cell-based
T1 sequence (whole entry): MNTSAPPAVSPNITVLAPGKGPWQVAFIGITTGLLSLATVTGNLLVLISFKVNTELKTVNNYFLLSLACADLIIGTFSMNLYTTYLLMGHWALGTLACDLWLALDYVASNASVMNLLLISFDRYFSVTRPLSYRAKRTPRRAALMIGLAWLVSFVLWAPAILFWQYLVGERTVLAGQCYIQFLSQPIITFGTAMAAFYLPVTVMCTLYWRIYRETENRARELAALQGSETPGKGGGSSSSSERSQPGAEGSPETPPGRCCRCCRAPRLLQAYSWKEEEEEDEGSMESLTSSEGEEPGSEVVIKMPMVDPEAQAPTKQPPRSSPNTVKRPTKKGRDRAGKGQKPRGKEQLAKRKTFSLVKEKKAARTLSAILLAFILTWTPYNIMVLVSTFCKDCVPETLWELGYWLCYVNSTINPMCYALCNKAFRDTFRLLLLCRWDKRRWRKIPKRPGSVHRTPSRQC

[2] = biological target: Muscarinic acetylcholine receptor M3 (Homo sapiens) (UniProt P20309); assay: Stimulations of inositol phosphate(PI) accumulation in transfected CHO cells in Muscarinic acetylcholine receptor M3 values are the maximal response obtained from the compound tested at 100 uM normalized to the effect of carbachol.; type: functional, cell-based
[3] = biological target: T2, Muscarinic acetylcholine receptor M5 (Homo sapiens) (UniProt P08912); assay: Stimulations of inositol phosphate(PI) accumulation in transfected CHO cells in Muscarinic acetylcholine receptor M5 values are the maximal response obtained from the compound tested at 100 uM normalized to the effect of carbachol.; type: functional, cell-based
T2 sequence (whole entry): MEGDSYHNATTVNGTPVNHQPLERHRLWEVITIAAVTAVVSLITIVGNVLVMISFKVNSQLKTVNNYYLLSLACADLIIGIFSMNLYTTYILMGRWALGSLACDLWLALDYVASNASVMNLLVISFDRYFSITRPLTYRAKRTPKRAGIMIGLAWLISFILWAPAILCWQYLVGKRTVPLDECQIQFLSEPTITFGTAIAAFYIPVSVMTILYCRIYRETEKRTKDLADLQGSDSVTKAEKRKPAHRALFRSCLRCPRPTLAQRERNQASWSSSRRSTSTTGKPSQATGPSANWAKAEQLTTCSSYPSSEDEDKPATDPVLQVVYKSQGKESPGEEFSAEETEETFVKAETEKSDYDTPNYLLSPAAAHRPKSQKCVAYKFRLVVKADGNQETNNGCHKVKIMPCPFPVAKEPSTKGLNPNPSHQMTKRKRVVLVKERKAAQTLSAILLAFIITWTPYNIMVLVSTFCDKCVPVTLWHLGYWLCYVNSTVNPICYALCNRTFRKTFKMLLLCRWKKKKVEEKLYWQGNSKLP

[4] = biological target: T3, Muscarinic acetylcholine receptor M2 (Homo sapiens) (UniProt P08172); assay: Reversal of forskolin-stimulated accumulation of […] in transfected CHO cells, against Muscarinic acetylcholine receptor M2; Not active up to 1 mM; type: functional, cell-based
T3 sequence (whole entry): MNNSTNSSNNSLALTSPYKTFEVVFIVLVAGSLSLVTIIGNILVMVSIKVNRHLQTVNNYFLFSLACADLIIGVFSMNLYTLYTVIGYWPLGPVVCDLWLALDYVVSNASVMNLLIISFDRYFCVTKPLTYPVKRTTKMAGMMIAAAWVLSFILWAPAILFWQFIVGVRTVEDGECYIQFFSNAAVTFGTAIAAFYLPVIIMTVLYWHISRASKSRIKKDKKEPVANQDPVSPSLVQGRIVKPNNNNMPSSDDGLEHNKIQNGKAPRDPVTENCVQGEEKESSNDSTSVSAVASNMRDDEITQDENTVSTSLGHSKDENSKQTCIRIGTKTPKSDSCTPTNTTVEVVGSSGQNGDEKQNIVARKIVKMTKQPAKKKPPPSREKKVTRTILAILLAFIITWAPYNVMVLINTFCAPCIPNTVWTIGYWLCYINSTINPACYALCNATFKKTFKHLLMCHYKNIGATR

[5] = biological target: T4, Muscarinic acetylcholine receptor M4 (Homo sapiens) (UniProt P08173); assay: Reversal of forskolin-stimulated accumulation of […] in transfected CHO cells, against Muscarinic acetylcholine receptor M4; Not active; type: functional, cell-based
T4 sequence (whole entry): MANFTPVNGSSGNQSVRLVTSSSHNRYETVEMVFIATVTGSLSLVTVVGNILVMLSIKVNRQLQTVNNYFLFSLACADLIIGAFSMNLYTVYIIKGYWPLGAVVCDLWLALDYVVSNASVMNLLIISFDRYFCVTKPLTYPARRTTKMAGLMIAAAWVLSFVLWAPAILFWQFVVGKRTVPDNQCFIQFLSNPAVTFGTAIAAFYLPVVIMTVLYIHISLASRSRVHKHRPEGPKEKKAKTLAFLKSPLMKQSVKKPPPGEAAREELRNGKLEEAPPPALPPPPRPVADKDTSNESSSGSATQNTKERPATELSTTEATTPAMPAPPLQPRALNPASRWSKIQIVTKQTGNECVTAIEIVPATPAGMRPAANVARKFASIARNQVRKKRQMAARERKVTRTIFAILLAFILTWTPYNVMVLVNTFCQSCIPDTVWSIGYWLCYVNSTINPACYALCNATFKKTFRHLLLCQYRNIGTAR

[6] = biological target: Muscarinic acetylcholine receptor (Rattus norvegicus) (UniProt P08482+P08483+P08485+P08911+P10980); assay: Ratio of QNB binding to CMD binding was evaluated; type: protein assay
[7] = biological target: T5, Muscarinic acetylcholine receptor M1 (Homo sapiens, UniProt P11229); assay: biochemical; type: cell-based, CHO
T5 sequence (P11229 whole entry): T1 sequence (whole entry)
Description: Binding affinity of [3H]-QNB to CHO cells expressing human Muscarinic acetylcholine receptor M1

[8] = biological target: Muscarinic acetylcholine receptor M3 (Homo sapiens) (UniProt P20309); assay: Inositol phosphate(PI) accumulation in CHO cells expressing Muscarinic acetylcholine receptor M3 as maximal response at 100 uM relative to carbachol; type: functional, cell-based
[9] = biological target: T2, Muscarinic acetylcholine receptor M5 (Homo sapiens); assay: Inositol phosphate(PI) accumulation in CHO cells expressing Muscarinic acetylcholine receptor M5 as maximal response at 100 uM relative to carbachol; type: functional, cell-based
[10] = biological target: T6, Muscarinic acetylcholine receptor M2 (Homo sapiens, UniProt P08172); assay: Binding affinity of [3H]QNB to CHO cells expressing human Muscarinic acetylcholine receptor M2; type: cell-based
T6 sequence (P08172 whole entry): T3 sequence (whole entry)

[11] = biological target: T1, Muscarinic acetylcholine receptor M1 (Homo sapiens); assay: Stimulations of inositol phosphate(PI) accumulation in transfected CHO cells in Muscarinic acetylcholine receptor M1 values are the maximal response obtained from the compound tested at 100 uM normalized to the effects of carbachol.; type: functional, cell-based
[12] = biological target: Muscarinic acetylcholine receptor; assay: Muscarinic acetylcholine receptor binding assay was conducted using [3H]cis-methyldioxolane (CMD) to label agonist sites in membrane preparations from rat neocortex
[13] = biological target: T5, Muscarinic acetylcholine receptor M1; assay: Binding affinity of compound labeled by [3H]QNB in CHO cells selectively expressing human Muscarinic acetylcholine receptor M1; type: cell-based
[14] = biological target: Muscarinic acetylcholine receptor; assay: Muscarinic acetylcholine receptor binding assay was conducted using [3H]quinuclidinyl benzilate (QNB) to label antagonist sites in membrane preparations from rat neocortex
[15] = biological target: T6, Muscarinic acetylcholine receptor M2; assay: Binding affinity of compound labeled by [3H]QNB in CHO cells selectively expressing human Muscarinic acetylcholine receptor M2; type: cell-based
[16] = biological target: T4, Muscarinic acetylcholine receptor M4 (Homo sapiens); assay: Maximal response obtained for each drug normalized to effect of carbachol in Muscarinic acetylcholine receptor M4; type: functional
[17] = biological target: Muscarinic acetylcholine receptor M3 (Homo sapiens) (UniProt P20309); assay: Maximal response obtained for each drug normalized to effect of carbachol in Muscarinic acetylcholine receptor M3; type: functional
[18] = biological target: T3, Muscarinic acetylcholine receptor M2 (Homo sapiens); assay: Amplification of transfected NIH3T3 cells was measured in Muscarinic acetylcholine receptor M2 required to produce half maximal effect; type: functional, cell-based
[19] = biological target: T2, Muscarinic acetylcholine receptor M5 (Homo sapiens); assay: Maximal response obtained for each drug normalized to effect of carbachol in Muscarinic acetylcholine receptor M5; type: functional
[20] = biological target: T2, Muscarinic acetylcholine receptor M5 (Homo sapiens); assay: Stimulations of inositol phosphate(PI) accumulation in transfected CHO cells in Muscarinic acetylcholine receptor M5 values are the maximal response obtained from the compound tested at 100 uM normalized to the effects of carbachol.; type: functional, cell-based
[21] = biological target: T2, Muscarinic acetylcholine receptor M5 (Homo sapiens); assay: Amplification of transfected NIH3T3 cells was measured in Muscarinic acetylcholine receptor M5 required to produce half maximal effect; type: functional, cell-based
[22] = biological target: T3, Muscarinic acetylcholine receptor M2 (Homo sapiens); assay: Maximal response obtained for each drug normalized to effect of carbachol in Muscarinic acetylcholine receptor M2; type: functional
[23] = biological target: T4, Muscarinic acetylcholine receptor M4 (Homo sapiens); assay: Amplification of transfected NIH3T3 cells was measured in Muscarinic acetylcholine receptor M4 required to produce half maximal effect; type: functional, cell-based
[24] = biological target: T4, Muscarinic acetylcholine receptor M4 (Homo sapiens); assay: Reversal of forskolin-stimulated accumulation of […] in transfected CHO cells, against Muscarinic acetylcholine receptor M4; NA=Not active up to 1 mM; type: functional, cell-based
[25] = biological target: T1, Muscarinic acetylcholine receptor M1 (Homo sapiens); assay: Maximal response obtained for each drug normalized to effect of carbachol in Muscarinic acetylcholine receptor M1; type: functional
[26] = biological target: T1, Muscarinic acetylcholine receptor M1 (Homo sapiens); assay: Stimulation of inositol phosphate(PI) accumulation in CHO cells expressing Muscarinic acetylcholine receptor M1 as maximal response at 100 uM relative to carbachol; type: functional, cell-based
[27] = biological target: T1, Muscarinic acetylcholine receptor M1 (Homo sapiens); conditions: NIH3T3
Description: Amplification of transfected NIH3T3 cells was measured in Muscarinic acetylcholine receptor M1 required to produce half maximal effect

[28] = biological target: Muscarinic acetylcholine receptor M3 (Homo sapiens) (UniProt P20309); conditions: NIH3T3
Description: Amplification of transfected NIH3T3 cells was measured in Muscarinic acetylcholine receptor M3 required to produce half maximal effect

Muscarinic acetylcholine receptor M3 (Homo sapiens), sequence (P20309 whole entry, looked up): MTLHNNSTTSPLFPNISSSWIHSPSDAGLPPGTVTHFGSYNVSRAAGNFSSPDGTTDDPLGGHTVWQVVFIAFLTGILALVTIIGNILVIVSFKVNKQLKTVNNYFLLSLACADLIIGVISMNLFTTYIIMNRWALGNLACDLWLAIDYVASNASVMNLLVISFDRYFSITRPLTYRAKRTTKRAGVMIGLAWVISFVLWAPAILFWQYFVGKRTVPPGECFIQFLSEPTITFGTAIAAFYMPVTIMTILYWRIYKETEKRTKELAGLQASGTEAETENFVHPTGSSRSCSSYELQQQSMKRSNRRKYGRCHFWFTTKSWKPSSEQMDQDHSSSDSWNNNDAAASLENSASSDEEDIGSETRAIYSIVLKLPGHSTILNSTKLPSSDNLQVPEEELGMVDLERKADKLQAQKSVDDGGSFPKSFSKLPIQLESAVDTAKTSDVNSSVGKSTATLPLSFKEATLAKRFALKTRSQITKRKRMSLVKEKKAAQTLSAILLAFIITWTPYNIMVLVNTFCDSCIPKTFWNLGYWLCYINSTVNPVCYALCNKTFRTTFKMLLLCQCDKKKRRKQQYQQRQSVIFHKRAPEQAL

`C(#Cc1ccccc1)CO/N=C1\CN2CCC1C2` (stereo not given) showed a Stimulations [1] of 40%, a Stimulations [2] of 8% and a Stimulations [3] of 1%. The ED50 [4] was “inactive”, the ED50 [5] was “inactive” and the Ratio [6] was 108.

`Clc1cccc(C#CCO/N=C2\CN3CCC2C3)c1` (stereo not given) gave an IC50 [7] of 3.34 µM, a CCh [8] of 4% and a CCh [9] of 3%. It also gave an IC50 [10] of 20.6 µM, a CCh [11] of 41% and a Ratio [6] of 203.

`CC(C)=CCO/N=C1\CN2CCC1C2` (stereo not given) gave an IC50 [12] of 0.00708 µM, an IC50 [13] of 0.216 µM and an IC50 [14] of 1.27 µM. For the same compound, the IC50 [15] was 0.519 µM and the Ratio [6] was 179.

`COc1cccc(C#CCO/N=C2\CN3CCC2C3)c1` (stereo not given) showed a CCh [16] of 68%, an IC50 [7] of 7.68 µM and a CCh [17] of 93%. It also gave a CCh [8] of 6%, an ED50 [18] of 1.32 µM and a CCh [19] of 103%. It also gave a CCh [20] of 11%, an ED50 [21] of 5.99 µM and a CCh [22] of 81%. The ED50 [4] was “inactive”, the IC50 [10] was 52 µM and the ED50 [23] was 0.093 µM. For the same compound, the ED50 [24] was “inactive”, the CCh [25] was 30% and the CCh [26] was 82%. The Ratio [6] was 250, the ED50 [27] was 0.042 µM and the ED50 [28] was 3.86 µM.
